Measurements published in patent US8361995B2, “Drug comprising at least one gestagen” (Richter Gedeon Nyrt., priority 2007, dated 2013).

Tests used:
[1] = tested on: human melanocytes; test: proliferation of human melanocytes cultured with hormones (cell counting, proliferation and apoptosis tests); assay type: cell-based; conditions: analysed after 9 days
Procedure: In a series of experiments, the influence of chlormadinone acetate (CMA) on the proliferation or pigment formation of human melanocytes was examined. To this end, human melanocytes were cultured in each case in the corresponding culture medium, which in each case contained different quantities of ethinyl oestradiol (EO), chlormadinone acetate (CMA) or a combination thereof. The individual compositions are summarised below in Table 1. [table] After 9 days the human melanocytes were analysed in vitro. Cell growth and cell death were determined by cell counting by means of Typan blue staining and by commercial cell proliferation and apoptosis tests. Pigment formation was determined both by measuring the melanin concentration of the cells and by measuring tyrosinase, the key enzyme in pigment formation.

[2] = tested on: tyrosinase; test: pigment formation of human melanocytes: tyrosinase activity; assay type: cell-based; conditions: 1 nM as the sole hormone in the culture medium; analysed after 9 days
Procedure: In a series of experiments, the influence of chlormadinone acetate (CMA) on the proliferation or pigment formation of human melanocytes was examined.
To this end, human melanocytes were cultured in each case in the corresponding culture medium, which in each case contained different quantities of ethinyl oestradiol (EO), chlormadinone acetate (CMA) or a combination thereof. The individual compositions are summarised below in Table 1.
After 9 days the human melanocytes were analysed in vitro. Cell growth and cell death were determined by cell counting by means of Typan blue staining and by commercial cell proliferation and apoptosis tests. Pigment formation was determined both by measuring the melanin concentration of the cells and by measuring tyrosinase, the key enzyme in pigment formation.

| tyrosinase activity of human melanocytes [2] | SMILES | reduction of the proliferation rate of human melanocytes ([1]; 100 nM in the culture medium) | proliferation of human melanocytes ([1]; 1 nM as the sole hormone in the culture medium) |
| --- | --- | --- | --- |
| – | CC(=O)O[C@]1(C(C)=O)CC[C@H]2[C@@H]3C=C(Cl)C4=CC(=O)CC[C@]4(C)[C@H]3CC[C@@]21C [chlormadinone acetate] | 50-70% | – |
| increased | C#C[C@]1(O)CC[C@H]2[C@@H]3CCc4cc(O)ccc4[C@H]3CC[C@@]21C [ethinyl oestradiol] | – | increased |
